Source: PMC12707061 (National Science Review, 2025)

Assays:
mPFC VIP neurons [1] = test: Patch-clamp recordings of mPFC VIP neurons in slices after in vivo drug injection; design: species or system mice; conditions: for resting membrane potential (RMP) of VIP neurons, average: saline controls −58.8 mV
Experimental: The brain was removed quickly after decapitation and immediately put into ice-cold oxygenated NMDG ACSF. A few minutes later, coronal slices containing the mPFC (300 μm thickness for mice) were sectioned in cold ACSF using a vibratome (VT1200 S, Leica) and then transferred into oxygenated NMDG ACSF at 32°C for incubation and recovery for 10–15 min. […] All chemicals were purchased from Sigma–Aldrich (St. Louis, MO, USA).
(§1) All drugs were dissolved in 0.9% saline and administered by intraperitoneal (i.p.) injection.
For in intro brain slices recording, AAV-Ef1α-DIO-mCherry virus was injected in the mPFC for labeling VIP neurons, and a 26-gauge double guide cannula (center-to-center distance 0.80 mm; RWD, China) was subsequently implanted in the same site of Vip-Cre mice.
For mPFC VIP neuron recordings, brain slices were transferred into the recording chamber filled with ACSF. VIP positive neurons were visualized with differential interference contrast optics (DIC, Olympus BX61WI). The recording pipettes (4-5 MΩ) were pulled with a micropipette puller (P97, Sutter Instrument; USA). […] When the whole-cell record was formed, to record the neuronal firing, the neurons were held at I=0 pA under current-clamp mode; to measure the intrinsic membrane properties, the same neurons were held at […] and spikes were induced by increases of current injection (each step was 5 pA, range –10-45 pA). All recordings were performed for 5 minutes typically.
The specific operation is as follows: using the Threshold search function in the Clampfit software Event Detection, setting the baseline and threshold for identifying the action potential, and then automatically identifying and measuring each action potential. The curve of firing was plotted using MATLAB. All events, including the spike numbers, were finally verified by eye.

mice [2] = test: TST, FST and OFT in mice with ketamine and pre-treatments; conditions: for locomotion and anxiety-like behaviors during the OFT: 1 h after injection; for effect of pre-treatment on ketamine's decrease of immobility in TST and FST: p-CPA i.p. once per day for 3 days, palonosetron into mPFC 0.5 h before ketamine
Experimental: Behavioral experiments were performed after 3-4 weeks of viral expression.
For behavioral experiments, C57BL/6 mice were recovered for at least 7 days before behavioral testing. Before micro-infusions, a 26-gauge internal injector with 3 mm projection was placed into the guide cannula, connected via PE tubing to a Hamilton micro-syringe driven by hand. […] The injector cannula was removed 3 min after infusion was finished, and corresponding behavioral tests were performed.
The mice were suspended in a computerized device allowing four animals to be recorded at one time, and were separated in a chamber, both acoustically and visually isolated. To ensure mice could not contact or climb with other things, an individual mouse was suspended 50 cm above the floor by a tail tape that was placed approximately 1 cm from the tip of the tail. The activities of the animals were recorded for 6 minutes by a video recorder. The total duration of immobility at the last 4 minutes of testing time was analyzed by one who was blinded to the test.
The FST apparatus was a clear glass tank (40 cm high and 20 cm in diameter) filled with water (25-26 °C), and the water depth was set to ensure mice could not touch the bottom with their tails or hind limbs. Mice were placed individually into the apparatus and allowed to swim for 6 minutes. The mice were considered immobile when floating in the water without struggling and making only those movements necessary to keep their heads above the water. Total immobility times during the last 4 minutes of the 6-minute testing period were analyzed by a researcher blinded to the test.
Mice were placed in a white open field chamber (38 x 38 x 40 cm) built by an acrylic plate in a room with dim light. The movement of each animal was tracked by a video camera positioned directly above the chamber (Jiliang, Shanghai). Time spent in the center zone of the chamber was a measure of anxiety behavior. Mice were allowed to move freely for 5 minutes in the arena. Total distance and center zone time were automatically analyzed by software (Jiliang, Shanghai).

mPFC VIP neurons [3] = test: Whole-cell recordings of mPFC VIP neurons with bath application of drugs to brain slices; assay type: cell-based, mice; conditions: for activation (firing) of VIP neurons: bath application, 5-HT 5 μM, AP5 100 μM, slices from normal mice
Experimental: Adult (10–16 weeks old) VIP-Cre-expressing mCherry mice with or without a cannula were firstly anesthetized by being injected intraperitoneally with tribromoethanol (250 mg/kg) and then perfused transcardially with 20 mL of ice-cold N-methyl-D-glucamine (NMDG) artificial cerebrospinal fluid (ACSF) solution (oxygenated with 5% CO2 + 95% O2) containing (mM): 93 NMDG, 93 HCl, 2.5 KCl, 10 MgSO4·7H2O, 1.2 NaH2PO4·2H2O, 30 NaHCO3, 25 glucose, 20 HEPES, 5 sodium ascorbate, 3 sodium pyruvate and 2 thioureas, with 0.5 CaCl2·2H2O added (pH: 7.35, 303 mOsm). The brain was removed quickly after decapitation and immediately put into ice-cold oxygenated NMDG ACSF. A few minutes later, coronal slices containing the mPFC (300 μm thickness for mice) were sectioned in cold ACSF using a vibratome (VT1200 S, Leica) and then transferred into oxygenated NMDG ACSF at 32°C for incubation and recovery for 10–15 min. The brain slices were transferred to a normal oxygenated ACSF solution (126 mM NaCl, 2.5 mM KCl, 2 mM MgSO4·7H2O, 1.25 mM NaH2PO4·2H2O, 25 mM NaHCO3, 10 mM glucose, 2 mM CaCl2) at room temperature for 1 h. All chemicals were purchased from Sigma–Aldrich (St. Louis, MO, USA).
For mPFC VIP neuron recordings, brain slices were transferred into the recording chamber filled with ACSF. VIP positive neurons were visualized with differential interference contrast optics (DIC, Olympus BX61WI). The recording pipettes (4-5 MΩ) were pulled with a micropipette puller (P97, Sutter Instrument; USA). For whole-cell patch-clamp recording, the pipette was filled with an internal solution containing (mM) 133 potassium gluconate, 18 NaCl, 0.6 EGTA, 2 Mg·ATP, 0.3 Na3·GTP, 10 Hepes (pH: 7.20, 280-290 mOsm). […]
To investigate the underlying synergistic effects of 5-HT (5 μM, Sigma) and AP5 (100 μM, Sigma) on neuronal excitability and firing, the two drugs were alone or together continuously perfused into the recording chamber using a medicine delivery pipe after a baseline was recorded for 5 min. The spikes were recorded under […] 1 minute after the drugs were delivered. […]

[4] = system: mPFC VIP neurons expressing the hM4Di receptor; test: Cell-attached recording of hM4Di-expressing mPFC VIP neurons in brain slices; assay type: cell-based, mice; conditions: 10 μM
Experimental: In the chemogenetic inhibition assay, we injected the AAV-DIO-hM4Di-mCherry vector into the bilateral mPFC of VIP-Cre mice. […] Behavioral experiments were performed after mice had been allowed to recover for 3 weeks after viral injection (Fig. 5A).

mice [5] = test: MK-801 alone and with fluoxetine: behavioural tests 24 h after injection; assay type: in vivo; conditions: single injection, alone
Experimental: as §1

PV neurons in the mPFC = test: Activation/excitability of mPFC PV neurons after ketamine (c-Fos, patch-clamp); assay type: in vivo, mice; conditions: after ketamine injection
Experimental: (§2) VIP, parvalbumin (PV) and somatostatin (SST) neurons are the three main types of gamma-aminobutyric acid (GABA)ergic interneurons in the mPFC [63].
(§3) All mice were deeply anesthetized with an overdose of pentobarbital and then transcardially perfused with 0.9% saline solution followed by 4% paraformaldehyde (PFA) in PBS. After 24 h of post-fixation in 4% PFA overnight at 4 °C, brains were subsequently immersed in a 30% sucrose solution for dehydration for 24-48 h. Brains were sectioned coronally at a thickness of 40 μm with a Vibration Microtome (Leica VT1200S). Coronal brain sections were washed in PBS, blocking solution containing 0.5% Triton X-100 and 5% normal bovine serum albumin was dissolved in 1x PBS. After blocking for 1-2 h and washing, brain sections were incubated with the primary antibody rabbit polyclonal anti-c-Fos (1:1000, Synaptic system) for 48 h at 4 °C. After washing, these brain sections were incubated with secondary antibody Alexa Fluor 594-conjugated donkey anti-rabbit IgG (1:1000, Jackson ImmunoResearch) at […]. Cell nuclei were identified using the 4, 6-diamidino-2-phenylindole (DAPI) stain (1:10000, Jackson ImmunoResearch). Imaging was carried out with a digital slide scanner (Olympus, VS120-S6-W) and a confocal microscope (Nikon, Ti-E+A1R SI).

[6] = system: 5-HT neurons in the dorsal raphe nucleus (DRN); test: c-Fos activation of DRN 5-HT neurons after ketamine; assay type: in vivo, mice; conditions: after ketamine injection
Experimental: as §3

SST neurons in the mPFC = test: Activation/excitability of mPFC SST neurons after ketamine (c-Fos, patch-clamp); assay type: in vivo, mice; conditions: after ketamine injection
Experimental: as §2, §3

VIP neurons in the mPFC = test: c-Fos immunolabeling of mPFC VIP neurons after ketamine; assay type: in vivo, mice; conditions: antidepressant dose; 1.5 h after injection; average
Experimental: as §2, §3

mPFC 5-HT = test: In vivo real-time microdialysis of mPFC 5-HT; design: species or system mice; conditions: i.p. 10 mg/kg; during the 15 min after injection; baseline ∼100%
[7] = palonosetron into mPFC before ketamine

SMILES: NC(Cc1ccc(Cl)cc1)C(=O)O (racemic) [p-CPA, 4-chloro-DL-phenylalanine]
- number of spikes in response to depolarizing current pulses (mPFC VIP neurons [1]; 1 h after injection): decreased
- resting membrane potential (RMP) of VIP neurons, average (mPFC VIP neurons [1]; 1 h after injection): −69.7 mV
- locomotion and anxiety-like behaviors during the OFT (mice [2]): did not affect locomotion or cause anxiety-like behaviors
- effect of pre-treatment on ketamine's decrease of immobility in TST and FST (mice [2]): attenuated the ketamine-related decrease in the duration of immobility

SMILES: NCCc1c[nH]c2ccc(O)cc12 [5-HT, serotonin]
- activation (firing) of VIP neurons (mPFC VIP neurons [3]): did not activate VIP neurons

SMILES: NC(CCCP(=O)(O)O)C(=O)O (centres unmarked) [AP5]
- activation (firing) of VIP neurons (mPFC VIP neurons [3]): did not activate VIP neurons
- resting membrane potential (RMP) of VIP neurons, average (mPFC VIP neurons [1]; 1 h after injection): –65.1 mV

SMILES: C[N+]1([O-])CCN(C2=Nc3cc(Cl)ccc3Nc3ccccc32)CC1 [CNO, clozapine N-oxide]
- mPFC VIP neuron activity in brain slices [4]: significantly inhibited

SMILES: C[C@]12N[C@H](Cc3ccccc31)c1ccccc12 [MK-801]
- antidepressant effects after 24 h (mice [5]): does not result in antidepressant effects

SMILES: CNCCC(Oc1ccc(C(F)(F)F)cc1)c1ccccc1 (centres unmarked) [fluoxetine]
- antidepressant effects after 24 h (mice [5]): does not result in antidepressant effects

SMILES: CNC1(c2ccccc2Cl)CCCCC1=O (centres unmarked) [ketamine]
- changes in electrophysiological characteristics of excitability of PV neurons (PV neurons in the mPFC): neither PV nor SST neurons showed any changes
- activation of DRN 5-HT neurons [6]: did not activate
- number of spikes in response to depolarizing current pulses (mPFC VIP neurons [1]; 1 h after injection): remarkable increase
- percentage of firing VIP neurons (mPFC VIP neurons [1]; 1 h after injection, ketamine 10 mg/kg i.p., p-CPA 150 mg/kg once daily 3 days, AP5 40 nmol mPFC, fluoxetine 10 mg/kg i.p.): 75%
- resting membrane potential (RMP) of VIP neurons, average (mPFC VIP neurons [1]; 1 h after injection): −44.2 mV
- membrane capacitance of VIP neurons (mPFC VIP neurons [1]; firing neurons after ketamine): no change in membrane capacitance
- changes in electrophysiological characteristics of excitability of SST neurons (SST neurons in the mPFC): neither PV nor SST neurons showed any changes
- VIP neurons activated (c-Fos+ among VIP neurons) (VIP neurons in the mPFC): 38.8%

SMILES: CC12CC3CC(C)(C1)CC(N)(C3)C2 [memantine]
- average relative-to-baseline 5-HT levels in the mPFC (mPFC 5-HT): did not show such an effect

SMILES: O=C1c2cccc3c2[C@H](CCC3)CN1[C@@H]1CN2CCC1CC2 [palonosetron]
- effect on VIP neuron activation by 5-HT combined with AP5 (mPFC VIP neurons [3]; palonosetron 10 μM): blocked the effect of 5-HT combined with AP5
- percentage of firing VIP neurons (mPFC VIP neurons [1]; palonosetron into mPFC 0.5 h before ketamine i.p., controls ∼10.5%): ~10%
- change in RMP of VIP neurons (mPFC VIP neurons [1]; [7]): no change in the RMP
- change in membrane capacitance of VIP neurons (mPFC VIP neurons [1]; [7]): moderate increase in membrane capacitance
- change in membrane resistance of VIP neurons (mPFC VIP neurons [1]; [7]): no change in membrane resistance
- locomotion and anxiety-like behaviors during the OFT (mice [2]): did not affect locomotion or cause anxiety-like behaviors
- effect of pre-treatment on ketamine's decrease of immobility in TST and FST (mice [2]): this effect was blocked
